Test results taken from patent publication US10308636B2, “Aromatic heterocyclic compound” (MITSUBISHI TANABE PHARMA CORPORATION, priority 2012, dated 2019).

Key:
Male KK-Ay mice = experiment: Body weight gain-suppressing, hypoglycemic and plasma insulin-decreasing action in KK-Ay mouse; type: in vivo; settings: 30 mg/kg/day oral once a day for 2 weeks, KK-Ay mice on high fat diet; for Hypoglycemic action (30 mg/kg/day): blood sugar after overnight fast; for Hypoglycemic action (30 mg/kg/day) / Plasma insulin-decreasing action (30 mg/kg/day): relative to solvent control; for Plasma insulin-decreasing action (30 mg/kg/day): plasma insulin after overnight fast; for Body weight gain-suppressing action (30 mg/kg/day): relative to body weight gain of solvent control as 100%
Method: Male KK-Ay mice, 8 weeks old, were given high fat diet (Oriental Yeast, 60 cal % fat), the test compound was suspended in 0.2% carboxymethylcellulose solution and the suspension was orally administered once a day. After the oral administration was repeated for 2 weeks, the body weight gain-suppressing ratio of the test compound was calculated, relative to the body weight gain of the solvent control group during the test period as 100%. After the final administration, the animals were fasted overnight, and blood was sampled through the caudal vein. The blood sugar and the insulin in the plasma were determined by using Glucose C II-Test Wako (Wako Pure Chemical) and Mouse Insulin Measurement Kit (Morinaga Institute of Biological Science), respectively.

Male C57BL/6J mice = experiment: Food intake-suppressing action (high fat diet); type: in vivo, mouse; settings: 5 mg/kg oral, fasted C57BL/6J mice, food intake for 4 hours, relative to solvent control
Method: Male C57BL/6J mice, 7 to 10 weeks old, were fasted overnight, and a test compound was suspended in 0.2% carboxymethylcellulose solution and the suspension was orally administered. Immediately, the animals were given high fat diet (Oriental Yeast, 60 cal % fat) and allowed to take freely. The food intake for 4 hours was determined, and the decrease ratio of the food intake (food intake-suppressing ratio) was calculated in the test compound administrating group, relative to the food intake in the solvent control group as a control.

Male ICR mice = experiment: Triglyceride (TG) elevation-suppressing action in plasma by lipid administration; type: in vivo, mouse; settings: 5 mg/kg oral, fasted ICR mice, lipid (Intralipos 20%, 10 mL/kg) 30 minutes after compound, plasma TG 2 hours after lipid, relative to solvent control
Method: Male ICR mice, 6 to 9 weeks old, were fasted overnight, and a test compound was suspended in 0.2% carboxymethylcellulose solution and the suspension was orally administered. After 30 minutes, lipid (Intralipos, 20%, Otsuka Pharmaceutical, 10 mL/kg) was orally administered. Blood was sampled through the caudal vein immediately before and 2 hours after the administration of the lipid to obtain plasma. TG in the plasma was determined by using Triglyceride E-Test Wako (Wako Pure Chemical), and the elevation value of TG in the plasma by the lipid administration was calculated. By using the plasma TG elevation value in the solvent control group as the control, the plasma TG elevation-suppressing ratio was calculated in the test compound administrating group.

Row | Structure (SMILES) | Hypoglycemic action (30 mg/kg/day) (Male KK-Ay mice) [%] | Plasma insulin-decreasing action (30 mg/kg/day) (Male KK-Ay mice) [%] | Body weight gain-suppressing action (30 mg/kg/day) (Male KK-Ay mice) [%] | Food intake-suppressing ratio (5 mg/kg) (Male C57BL/6J mice) [%] | Plasma TG elevation suppressing ratio (5 mg/kg) (Male ICR mice) [%]
1 | NC(=O)c1ccc(Br)cc1F [Example 78] | 57 | 69 | 56 | – | –
2 | CCOCc1nc(-c2ccc(-c3ccc(OCC(C)(C)C(=O)O)cc3)nc2)[nH]c1Cl [Example 31-2] | 55 | 45 | 41 | 74 | 74
3 | COC(=O)C(C)(C)COc1ccc(-c2ccc(-c3nc(OCC(F)(F)C(F)(F)F)n(COCC[Si](C)(C)C)n3)cc2)cn1 [Example 74] | 32 | 29 | 41 | – | –
4 | Cc1cc(OCC(C)(C)C(=O)O)ncc1-c1ccc(-c2nc(C#N)c[nH]2)cc1 [Example 32-2] | – | – | – | 65 | 63
5 | CC(C)(COc1ccc(-c2ccc(-c3nc(COCc4ccccc4)c[nH]3)cn2)cc1)C(=O)O [Example 10] | 37 | 40 | 32 | – | –
6 | CCOc1nc(-c2ccc(-c3ccc(O[C@H]4CC[C@@H](C(=O)OCC)CC4)nc3)cc2)nn1COCC[Si](C)(C)C [Example 67] | 47 | 14 | 43 | – | –
7 | CC(C)(COc1ccc(-c2ccc(-c3ncc(CCOc4ccccc4)[nH]3)cn2)cc1)C(=O)O [Example 1-58] | – | – | – | 68 | 66
8 | Nc1nnc(-c2ccc(Br)cc2)o1 [Example 61] | 44 | 50 | 36 | – | –
9 | COc1ccc(-c2n[nH]c(-c3ccc(-c4ccc(OCC(C)(C)C(=O)O)nc4)cc3)n2)cc1 [Example 110] | – | – | – | 68 | 73.0
10 | COC(=O)C(C)(C)COc1ccc(-c2ccc(-c3nc(-c4noc(C)n4)cn3COCC[Si](C)(C)C)cn2)cc1 [Example 7] | 42 | 34 | 34 | – | –
11 | O=C(O)Cc1ccc(C2CCN(c3ccc(-c4nc(C(F)(F)F)c[nH]4)cn3)CC2)cc1 [Example 43-2] | – | – | – | 82 | 66
